Read-outs that look alike come from different tables or passages of the source.
Legend:
Jurkat [1] = assay: MTS proliferation assay, Jurkat; format: cell-based, human; conditions: 72 h incubation, read-out: MTS proliferation assay IC 50 Jurkat
Summary of the method: (§1)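 Human lines, EGFP-transfected or not, grow in RPMI-1640 plus 5% or 10% FCS and 2-mercaptoethanol. They receive test compound for 72 h at final concentrations of 10, 3, 1 and 0.3 μM, and MTS conversion is measured at 492 nm.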

Jily = assay: MTS proliferation assay, Jily; format: cell-based; conditions: 72 h incubation, read-out: MTS proliferation assay IC 50 Jily
Summary of the method: (§2)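 Seed cells in complete RPMI-1640 medium and allow 24 h attachment. Add compounds to final 10 μM, 3 μM, 1 μM or 0.3 μM and incubate 72 h at 37° C. Add MTS, incubate 3 h more, then measure absorption at 492 nm.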

HT1080 = assay: MTS proliferation assay, HT1080; format: cell-based, human; conditions: HT1080, 72 h incubation, read-out: MTS proliferation assay IC 50 HT1080
Summary of the method: as §1

HeLa [2] = assay: MTS proliferation assay, HeLa; format: cell-based, human; conditions: 72 h incubation, read-out: MTS proliferation assay IC 50 HeLa
Summary of the method: as §1

MRC5 = assay: MTS proliferation assay, MRC5; format: cell-based; conditions: MRC5, 72 h incubation, read-out: MTS proliferation assay IC 50 MRC5
Summary of the method: as §2

Jurkat [3] = assay: PI staining for cell cycle distribution, Jurkat; format: cell-based, human; design: key: 0: no effect; 1: weak effect; 2: strong effect; conditions: Jurkat 3 μM, 24 h
Protocol: (§3) Cell lines are cultured in RPMI-1640 tissue culture medium containing either 5% or 10% fetal calf serum, 0.05 mM 2-mercaptoethanol, 2 mM glutamine and penicillin/streptomycin 50 μg/ml (complete medium) (Sigma, Buchs, Switzerland). General growth conditions are 37° C. and 7.5% CO2.
(§4) The following human cell lines (either EGFP transfected or not) are being used: HeLa (ATCC: CCL-2), KB (ATCC: CCL-17), MCF7 (ATCC: HTB-22), SK-BR-3 (ATCC: HTB-30), SK-Mel 1 (ATCC: HTB-67), SK-Mel 28 (ATCC: HTB-72), PC-3 (ATCC: CRL-1435), SW 480 (ATCC: CCL-228), NCl-H460 (ATCC: HTB-177), NCl-H1792 (ATCC: CRL-5895), HT1080 (ATCC: CCL-21), Jurkat (ATCC: TIB-152), Ramos (ATCC: CRL-1596), Raji (ATCC: CCL-86), H9 (ATCC: HTB-176), Hut78 (ATCC: TIB-161), K562 (ATCC: CCL 243), HL-60 (ATCC: CCL 240), U-87MG (ATCC: HTB-14), HepG2 (ATCC: HB-8065), U-2 OS (ATCC: HTB-96), Saos-2 (ATCC: HTB-85), U937 (ATCC: CRL 1593), Hs 578T (ATCC: HTB 126), HBL-100 (ATCC: HTB 124), Molt-4 (ATCC: CRL 1582).
(§5) 1-2*10^5 cells are seeded into 24 well tissue culture plates and incubated for 24 h prior to compound addition. Compounds are added for 24 h in a final concentration of 3 μM or 10 μM. Adherent cells are harvested by trypsinization. The cell suspensions are fixed by adding 2 parts ice cold ethanol 100% while vortexing. Then the samples are stored for >2 h at −20° C. Subsequently the cells are washed with PBS once and resuspended in 250 μl PBS containing 50 μg/ml PI (Calbiochem # 537059), then the samples are incubated at 37° C. for 30 minutes and subsequently analyzed on a FACSCalibur™ monitoring linear PI fluorescence activity on FL2. The readout allows the detection of a possible direct or indirect influence of the tested compounds on the cell cycle. The following events can occur: a) Generation of a subG1 peak indicative for DNA fragmentation, b) increase of the cell population arrested in G2M phase. Both events are scored by 1 for weak and 2 for strong occurrence. 0 indicates no occurrence at all.

HeLa [4] = assay: PI staining for cell cycle distribution, HeLa; format: cell-based, human; design: key: 0: no effect; 1: weak effect; 2: strong effect; conditions: HeLa 10 μM, 24 h
Protocol: as §3, §4, §5

[5] = system: adherent cells or suspension cells; assay: Hoechst 33342 nuclear staining (fraction of apoptotic nuclei); format: cell-based; design: key: 0 relating to no activity; 1 relating to weak activity comprising less than 70% of the cells; score 2 relating to strong activity comprising more than 70% of the cells
[6] = cell population arrested in G2M phase
[7] = subG1 peak indicative for DNA fragmentation

Compound	IC50 (Jily)	Hoechst 33342 nuclear staining score ([5]; H460, conc 0.01 μm)	Hoechst 33342 nuclear staining score ([5]; H460, conc 0.1 μm)	Hoechst 33342 nuclear staining score ([5]; H460, conc 1 μm)	Hoechst 33342 nuclear staining score ([5]; HeLa, conc 0.01 μm)	Hoechst 33342 nuclear staining score ([5]; HeLa, conc 0.1 μm)	Hoechst 33342 nuclear staining score ([5]; HeLa, conc 1 μm)	Hoechst 33342 nuclear staining score ([5]; Jily, conc 0.01 μm)	Hoechst 33342 nuclear staining score ([5]; Jily, conc 0.1 μm)	Hoechst 33342 nuclear staining score ([5]; Jily, conc 1 μm)	Hoechst 33342 nuclear staining score ([5]; Jurkat, conc 0.01 μm)	Hoechst 33342 nuclear staining score ([5]; Jurkat, conc 0.1 μm)	Hoechst 33342 nuclear staining score ([5]; Jurkat, conc 1 μm)	Hoechst 33342 nuclear staining score ([5]; MRC5, conc 0.01 μm)	Hoechst 33342 nuclear staining score ([5]; MRC5, conc 0.1 μm)	Hoechst 33342 nuclear staining score ([5]; MRC5, conc 1 μm)	Hoechst 33342 nuclear staining score ([5]; PBLs, conc 0.01 μm)	Hoechst 33342 nuclear staining score ([5]; PBLs, conc 0.1 μm)	Hoechst 33342 nuclear staining score ([5]; PBLs, conc 1 μm)	also measured
N#CCCNc1nonc1-c1nc2ccccc2n1CC(=O)c1ccc(N)cc1 [Example 58]	< 10 nM	2 (score 2 relating to strong activity comprising more than 70% of the cells)	2 (score 2 relating to strong activity comprising more than 70% of the cells)	2 (score 2 relating to strong activity comprising more than 70% of the cells)	2 (score 2 relating to strong activity comprising more than 70% of the cells)	2 (score 2 relating to strong activity comprising more than 70% of the cells)	2 (score 2 relating to strong activity comprising more than 70% of the cells)	2 (score 2 relating to strong activity comprising more than 70% of the cells)	2 (score 2 relating to strong activity comprising more than 70% of the cells)	2 (score 2 relating to strong activity comprising more than 70% of the cells)	2 (score 2 relating to strong activity comprising more than 70% of the cells)	2 (score 2 relating to strong activity comprising more than 70% of the cells)	2 (score 2 relating to strong activity comprising more than 70% of the cells)	1 (1 relating to weak activity comprising less than 70% of the cells)	2 (score 2 relating to strong activity comprising more than 70% of the cells)	2 (score 2 relating to strong activity comprising more than 70% of the cells)	0	0	0	IC50 (Jurkat [1]): < 10 nM; IC50 (HT1080): < 10 nM; IC50 (HeLa [2]): 10 to 100 nM; IC50 (MRC5): < 10 nM; PI staining for cell cycle distribution, G2M (Jurkat [3]; [6]): 0; PI staining for cell cycle distribution, subG1 (Jurkat [3]; [7]): 0; PI staining for cell cycle distribution, G2M (HeLa [4]; [6]): 2; PI staining for cell cycle distribution, subG1 (HeLa [4]; [7]): 0
Nc1nonc1-c1nc2ccccc2n1CC(=O)c1ccc(Cl)c([N+](=O)[O-])c1 [Example 66, 4-[1-(4-Chloro-3-nitrophenacyl)-1H-benzimidazol-2-yl]-furazan-3-ylamine]	100 to 1000 nM	0	0	2 (score 2 relating to strong activity comprising more than 70% of the cells)	0	0	2 (score 2 relating to strong activity comprising more than 70% of the cells)	0	0	2 (score 2 relating to strong activity comprising more than 70% of the cells)	0	1 (1 relating to weak activity comprising less than 70% of the cells)	2 (score 2 relating to strong activity comprising more than 70% of the cells)	0	0	1 (1 relating to weak activity comprising less than 70% of the cells)	0	0	0	IC50 (Jurkat [1]; Homo sapiens): 10 to 100 nM; IC50 (HT1080; Homo sapiens, HT-1080): 100 to 1000 nM; IC50 (HeLa [2]; Homo sapiens): 100 to 1000 nM; IC50 (MRC5; Homo sapiens): 100 to 1000 nM; melting point: 198 to 200 °C

Source: patent USRE42890E1, “Furazanobenzimidazoles” (Basilea Pharmaceutica AG, priority 2003, dated 2011)
